# Source: patent US9630947B2, “Therapeutic compounds and related methods of use” (OTSUKA PHARMACEUTICAL CO., LTD., priority 2009, dated 2017)
# Molecular target: T1, purified STEP46 enzyme (Homo sapiens, UniProt P54829)
# T1 sequence (P54829 1-565): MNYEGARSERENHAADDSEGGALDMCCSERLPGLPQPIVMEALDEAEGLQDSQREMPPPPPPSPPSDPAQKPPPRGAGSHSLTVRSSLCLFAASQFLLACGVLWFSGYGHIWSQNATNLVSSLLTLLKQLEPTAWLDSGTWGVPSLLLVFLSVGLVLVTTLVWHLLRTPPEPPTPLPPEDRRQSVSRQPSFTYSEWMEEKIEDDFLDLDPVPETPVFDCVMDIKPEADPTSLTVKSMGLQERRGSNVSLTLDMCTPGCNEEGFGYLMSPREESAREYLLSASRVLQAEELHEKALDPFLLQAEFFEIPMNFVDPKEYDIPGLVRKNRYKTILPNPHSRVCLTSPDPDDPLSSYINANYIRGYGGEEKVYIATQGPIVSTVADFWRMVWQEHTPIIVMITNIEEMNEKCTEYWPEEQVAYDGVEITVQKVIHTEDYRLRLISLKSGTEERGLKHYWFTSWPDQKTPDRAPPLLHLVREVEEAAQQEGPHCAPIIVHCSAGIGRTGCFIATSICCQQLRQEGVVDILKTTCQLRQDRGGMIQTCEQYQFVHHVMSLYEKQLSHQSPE
# Assay: STEP46 biochemical assay (DiFMUP fluorescence phosphatase assay)
# Conditions: DiFMUP 10 μM, read-out: STEP IC50
# Description: STEP46 Biochemical Assays
# Serial dilutions of compounds were performed in 100% DMSO and 1 uL of compounds were dispensed into 384-well black polystyrene plates (Corning, NY). Compounds were incubated with 24 uL of buffer containing 50 mM Hepes, 1 mM DTT, 0.02% Brij35, 1 ng/well purified STEP46 enzyme for 30 min at room temperature. The reaction was initiated by addition of 25 uL of DiFMUP (6, 8-difluoro-4-methylumbelliferyl phosphate) (InVitrogen, CA) with a final concentration of 10 μM and incubated at 27° C. for 90 min. Final DMSO concentration is 2%. Plates were read with florescence intensity at excitation/emission of 360/460 nm using a PheraStar plate reader (BMG Labtech, NC).
# Data were expressed as percentage (%) inhibition of enzyme activity. 0% inhibition is defined as the RFUs (relative fluorescence units) in the absence of compounds and 100% inhibition is defined as RFUs in the absence of STEP46 enzyme. IC50 values of compounds with inhibitory activity against STEP46 were determined by GraphPad Prism (version 4.03) using four parameter logistic equation. Some compounds act as activators. For compounds showing STEP46 enzymatic activation, data are represented as percentage of inhibition but with negative values at three representative concentrations (25, 50 and 100 uM).
row,Compound,IC50 [nM]
1,COc1ccc2nc(-c3cccnc3)nc(Nc3ccc4ccc(=O)[nH]c4c3C)c2c1 [Compound 343],> 10000
2,COc1ccc2nc(-c3cnccn3)nc(Nc3cccc(C#N)c3)c2c1 [Compound 1193],1000 to 10000
3,CCOc1ccc2nc(-c3cccnc3)nc(Nc3ccccc3C(N)=O)c2c1 [Compound 73],1000 to 10000
4,COc1ccc2nc(-c3cnccn3)nc(Nc3ccc(F)c(F)c3)c2c1 [Compound 1192],1000 to 10000
5,Clc1cc(Cl)cc(Nc2nc(-c3ccnnc3)nc3cc(Cl)ccc23)c1 [Compound 1205],1000 to 10000
6,COc1ccc2nc(-c3cccnc3)nc(Nc3ccc4oc(=O)[nH]c4c3)c2c1 [Compound 317],1000 to 10000
7,CN(C)c1nc(-c2cccnc2)nc2ccc(-c3ccccc3Cl)cc12 [Compound 1332],1000 to 10000
8,FC(F)Oc1cccc(Nc2nc(-c3cnccn3)nc3cc(Cl)ccc23)c1 [Compound 1145],1000 to 10000
9,CNc1nc(-c2cccnc2)nc2ccc(-c3cc(OC)ccc3F)cc12 [Compound 1400],1000 to 10000
10,N#Cc1cccc(-c2ccc3nc(-c4cccnc4)nc(Nc4ccc(F)c(Cl)c4)c3c2)c1 [Compound 633],1000 to 10000
11,CN(C)c1nc(-c2cccnc2)nc2ccc(-c3ccc([N+](=O)[O-])cc3)cc12 [Compound 1336],1000 to 10000
12,COc1ccc2nc(-c3cccnc3)nc(Nc3nc(-c4ccccc4OC(F)(F)F)cs3)c2c1 [Compound 454],1000 to 10000
13,COc1ccc2nc(-c3cccnc3)nc(Nc3ccccc3C(=O)NC3CCc4ccccc43)c2c1 (centres unmarked) [Compound 898],> 10000
14,COc1ccc(OC)c(-c2ccc3nc(-c4cccnc4)nc(Nc4ccc(F)c(Cl)c4)c3c2)c1 [Compound 645],1000 to 10000
15,COc1ccc2nc(-c3cccnc3)nc(Nc3ccc4c(c3)OCCO4)c2c1 [Compound 297],> 10000
16,FC1(F)Oc2ccc(Nc3nc(-c4cncnc4)nc4ccccc34)cc2O1 [Compound 1173],> 10000
17,Fc1ccc(Nc2nc(-c3cccnc3)nc3ccc(-c4ccoc4)cc23)cc1Cl [Compound 647],1000 to 10000
18,Fc1ccccc1-c1ccc2c(NCc3ccccn3)nc(-c3cccnc3)nc2c1 [Compound 1425],1000 to 10000
19,CNc1nc(-c2cccnc2)nc2cc(-c3cc(F)cc(F)c3)c(C)cc12 [Compound 1408],1000 to 10000
20,CN(C)c1ccc2nc(-c3ccnnc3)nc(Nc3cccc(OC(F)F)c3)c2c1 [Compound 1153],1000 to 10000
21,COc1ccc2nc(-c3cccnc3)nc(Nc3nc(-c4ccc(Cl)cc4)c(C)s3)c2c1 [Compound 461],1000 to 10000
22,CNc1nc(-c2cccnc2)nc2cc(C)c(-c3ccc(F)cc3F)cc12 [Compound 1415],> 10000

row,Compound,IC50 [nM]
1,COc1ccc2nc(-c3cccnc3)nc(Nc3ccc(F)cc3Cl)c2c1 [Compound 933],1000 to 10000
2,Clc1ccc(Nc2nc(-c3cnccn3)nc3ccccc23)cc1Cl [Compound 1218],1000 to 10000
3,Fc1ccc(Nc2nc(-c3cccnc3)nc3cc(-c4cncnc4)ccc23)cc1Cl [Compound 678],1000 to 10000
4,Clc1cc(Cl)cc(Nc2nc(-c3cnccn3)nc3ccccc23)c1 [Compound 1222],1000 to 10000
5,CNc1nc(-c2cccnc2)nc2c(C)cc(-c3ccc(OC)cc3)cc12 [Compound 1282],1000 to 10000
6,CCOC(=O)c1sc(Nc2nc(-c3cccnc3)nc3ccc(OC)cc23)nc1-c1ccccc1 [Compound 466],1000 to 10000
7,COc1ccc2nc(-c3cccnc3)nc(Nc3ccccc3C(=O)NCCC(F)(F)F)c2c1 [Compound 899],1000 to 10000
8,COc1ccc2nc(-c3cccnc3)nc(Nc3nc(-c4cc(F)cc(F)c4)cs3)c2c1 [Compound 457],1000 to 10000
9,Fc1ccc(Nc2nc(-c3cnccn3)nc3cc(Cl)ccc23)cc1F [Compound 1142],1000 to 10000
10,CN(C)C(=O)COc1ccc2nc(-c3cccnc3)nc(Oc3ccc(F)c(Cl)c3)c2c1 [Compound 846],1000 to 10000
11,COc1ccc2nc(-c3cccnc3)nc(Nc3cccc4cc[nH]c34)c2c1 [Compound 300],> 10000
12,CN(C)c1ccc2nc(-c3ccnnc3)nc(Nc3ccc(F)c(Cl)c3)c2c1 [Compound 1152],1000 to 10000
13,CNc1nc(-c2cccnc2)nc2cc(-c3cccc(C#N)c3)ccc12 [Compound 1364],1000 to 10000
14,COc1ccc2nc(-c3cccnc3)nc(Nc3ccc4ccc(=O)oc4c3)c2c1 [Compound 330],1000 to 10000
15,COc1ccc2nc(-c3cccnc3)nc(Nc3ncc(-c4ccccc4)s3)c2c1 [Compound 418],1000 to 10000
16,CNc1nc(-c2cccnc2)nc2cc(-c3ccc(F)c(F)c3)ccc12 [Compound 1373],1000 to 10000
17,CNc1nc(-c2cccnc2)nc2c(C)cc(-c3ccccc3C#N)cc12 [Compound 1284],1000 to 10000
18,CNc1nc(-c2cccnc2)nc2c(C)c(-c3ccc(OC)cc3)ccc12 [Compound 1455],1000 to 10000
19,COc1ccc2nc(-c3cccnc3)nc(Nc3cccc(-c4ccccc4)c3)c2c1 [Compound 426],> 10000
20,Cc1cccc2c(Nc3cc(Cl)cc(Cl)c3)nc(-c3cnccn3)nc12 [Compound 1180],1000 to 10000
21,CNc1nc(-c2cccnc2)nc2cc(-c3ccc(C#N)cc3)c(C)cc12 [Compound 1410],1000 to 10000
22,Cc1cc(Cl)cc2c(Nc3ccccc3C(N)=O)nc(-c3cnccn3)nc12 [Compound 1226],1000 to 10000

# The remaining lines, values ahead:
row,IC50 [nM],Compound
1,< 1000,N#Cc1ccccc1-c1ccc2c(Nc3ccc(F)c(Cl)c3)nc(-c3cccnc3)nc2c1 [Compound 685]
2,1000 to 10000,Cc1cc(Cl)cc2c(Nc3cc(Cl)cc(Cl)c3)nc(-c3cnccn3)nc12 [Compound 1229]
3,< 1000,COc1ccc2nc(-c3cccnc3)nc(Nc3nc(-c4ccccc4F)cs3)c2c1 [Compound 439]
4,1000 to 10000,COc1ccc2nc(-c3cncnc3)nc(Nc3ccccc3C(N)=O)c2c1 [Compound 1172]
5,< 1000,CNc1nc(-c2cccnc2)nc2c(C)c(-c3ccc(C#N)cc3)ccc12 [Compound 1452]
6,1000 to 10000,COc1ccc2nc(-c3cccnc3)nc(Nc3cccc(Br)c3)c2c1 [Compound 425]
7,< 1000,Cc1ccc(-c2ccc3c(Nc4ccc(F)c(Cl)c4)nc(-c4cccnc4)nc3c2)cc1 [Compound 695]
8,1000 to 10000,CCOc1ccc2nc(-c3cncnc3)nc(Nc3ccccc3C(N)=O)c2c1 [Compound 1171]
9,1000 to 10000,"CNc1nc(-c2cccnc2)nc2ccc(-c3cccc(OCCOC)c3)cc12 [Compound 1680, 6-(3-(2-methoxyethoxyl)phenyl)-N-methyl-2-(pyridin-3-yl)quinazolin-4-amine]"
10,< 1000,CNc1nc(-c2cccnc2)nc2ccc(-c3ccc(C(C)=O)cc3OC)cc12 [Compound 1382]
11,1000 to 10000,COc1ccc2nc(-c3cccnc3)nc(Nc3nc(-c4ccccc4)c(C(N)=O)s3)c2c1 [Compound 1125]
12,< 1000,Fc1ccc(Nc2nc(-c3ccnnc3)nc3ccccc23)cc1Cl [Compound 1216]
13,< 1000,CN(C)C(=O)COc1ccc2nc(-c3cccnc3)nc(Oc3ccc(Cl)c(Cl)c3)c2c1 [Compound 847]
14,< 1000,NC(=O)c1ccccc1Nc1nc(-c2cccnc2)nc2cc(-c3cccc(F)c3F)ccc12 [Compound 705]
15,< 1000,COc1ccc2nc(-c3cccnc3)nc(Nc3nc(-c4ccccc4C)cs3)c2c1 [Compound 444]
16,< 1000,COc1ccc2nc(-c3cccnc3)nc(Nc3nc(-c4ccc(OC(F)(F)F)cc4)cs3)c2c1 [Compound 442]
17,< 1000,Fc1ccc(-c2ccc3c(Nc4ccc(F)c(Cl)c4)nc(-c4cccnc4)nc3c2)cc1 [Compound 689]
18,< 1000,NC(=O)c1ccccc1Nc1nc(-c2cccnc2)nc2cc(-c3cc(F)cc(F)c3)ccc12 [Compound 707]
19,< 1000,"CNC(=O)c1sc(Nc2nc(-c3cccnc3)nc3ccc(OC)cc23)nc1-c1ccccc1 [Compound 1124, 2-(6-methoxy-2-(pyridin-3-yl)quinazolin-4-ylamino)-N-methyl-4-phenylthiazole-5-carboxamide]"
20,< 1000,NC(=O)c1ccccc1Nc1nc(-c2cccnc2)nc2cc(-c3cccc(F)c3)ccc12 [Compound 700]
21,< 1000,Fc1ccc(Nc2nc(-c3cccnc3)nc3ccc(-c4cncnc4)cc23)cc1Cl [Compound 652]
22,< 1000,COc1ccc2nc(-c3cccnc3)nc(Nc3nnc(-c4ccc(Cl)cc4)s3)c2c1 [Compound 412]
23,< 1000,COc1ccc2nc(-c3cccnc3)nc(Nc3nc(-c4ccc(C)cc4)cs3)c2c1 [Compound 429]
24,< 1000,NC(=O)c1ccccc1Nc1nc(-c2cccnc2)nc2cc(-c3ccc(F)cc3F)ccc12 [Compound 704]
